The text below walks through data of US20160030364A1, “Therapeutic Compositions and Uses Thereof” (MANUKA HEALTH NEW ZEALAND LIMITED, priority 2013, published 2016).

Format in all cases: cell-based
Assay [1] concerns human colorectal adenocarcinoma cells (DLD-1). Put plainly: MTT anti-proliferative assay, DLD-1 (Examples 3-12). Conditions: 200 μg/ml, 48 hours. How it is done:
(§1) 5-phenylpenta-2,4-dienoic acid was assessed for its ability to modulate the viability and proliferation of human colorectal adenocarcinoma cells (DLD-1); human colon cancer cell line (HCT-116); human gastric carcinoma cell line (NCI-N87); and human oesophageal squamous cell carcinoma cell line (KYSE-30) as assessed by the MTT assay. The positive control, 5-fluorouracil (5-FU) was included at three concentrations; in addition to an unsupplemented cell control as a negative control in the study. The 5-phenylpenta-2,4-dienoic acid was a genuine standard with chemical structure confirmed by NMR and MS.
(§2) The four human gastrointestinal carcinoma cell lines were revived from cryostorage and cultured in the presence of the test and reference samples. An MTT assay was then performed on the cultures to determine the effect of the samples on the cell viability and proliferation.
(§3) The test sample 5-phenylpenta-2,4-dienoic acid, and all other test samples in Examples 4-12 (except tectochrysln) were Initially dissolved in pure ethanol to a concentration of around 13.35 mg/ml. Tectochrysin was initially dissolved in triethylene glycol mono-methyl ether to the same concentration. Working solutions were then prepared from the stock solutions by dilution to 15% ethanol/Hanks Balanced Salt Solution (ETOH)/HBSS to a concentration of 2 mg/mL solids. In the assay the final concentration of the samples was 200 μg/ml with a final EtOH concentration of 1.5%. Final concentrations of test compounds and propolis prepared as above are as noted in Example 3.
(§4) • 1. Human colorectal adenocarcinoma cells (ATCC CCI-221, DLD-1)(ATCC, Bethesda, Md., USA) • 2. Human gastric carcinoma cells (ATCC CRL-5822, NCI-N87)(ATCC, Bethesda, Md., USA) • 3. Human oesophageal squamous cell carcinoma (ECACC, KYSE-30)(Sigma Aldrich, Auckland, NZ) • 4. Human colon carcinoma cells (ECACC HCT-116)(Sigma Aldrich, Auckland, NZ) • 5. Penicillin-streptomycin solution: 10000 units/ml penicillin, 10 mg/ml streptomycin in 0.9% NaCl (Sigma Cat #P-0781). Stored at −20° C. • 6. For DLD-1 cells: DMEM culture medium (Invitrogen Cat #12100-046). Stored at 4° C. • 7. For NCI-N87 cells: RPMI-1640 medium modified to contain 2 mM L-glutamine, 10 mM HEPES, 1 mM sodium pyruvate, 4500 mg/L glucose, and 1500 mg/L sodium bicarbonate (Sigma R6504). Stored at 4° C. • 8. For KYSE-410 cells: RPMI-1640 medium modified to contain 2 mM L-glutamine (Sigma R6504). Stored at 4° C. • 9. For HCT-116 cells: McCoy's 5A medium modified to contain 2 mM L-glutamine (Sigma M48792). Stored at 4° C. • 10. Trypsin-EDTA solution: 0.25% Trypsin/EDTA, Invitrogen Cat#15400054 (×10 in stock). • 11. Phosphate buffered saline (PBS) (Prepared by TBL). • 12. Hanks Balanced Salt Solution (HBSS). (GIBCO Cat No. 14185-052). Stored at 4° C. • 13. Foetal Bovine Serum (GIBCO Cat #10091-148). Stored at −20° C. • 14. MTT Reagent: 100 mg/vial, (SIGMA Cat. No. M-2128) dissolved in PBS at 10 mg/ml and stored at −20° C. 5 mg/ml MTT solution will be prepared in PBS and stored at 4° C. as working solution. • 15. MTT lysis buffer: 10% sodium dodecyl sulphate (SDS)/45% Dimethyl Formamide (20 g SDS will be dissolved in 100 ml of double-distilled water (DDW), and 90 ml of Dimethyl Formamide will be added to the SDS solution). The pH will be adjusted to 4.7 by glacial acetic acid, and DDW added up to a final volume of 200 ml. • 16. 5-Fluorouracil (5-FU), (Sigma Cat. No. F-6627). Three working solutions will be prepared at 19.5 μg/ml. 6.5 μg/ml and 1.95 μg/ml dissolved in 15% Ethanol/HBSS. Final concentrations will be 1.95 μg/ml (15 μM), 0.65 μg/ml (5 μM) and 0.195 μg/ml (1.5 μM).
(§5) The medium for the propagation of the each of the cells lines is given above. Each medium was prepared following the ATCC/ECACC instructions and supplemented with penicillin-streptomycin solution (10 ml per litre). FBS (at 10%) was added just before use.
• 1. […]
On the technique in general: Formazan colour is commonly taken as a measure of viable cells.

Assay [2] concerns human gastric carcinoma cell line (NCI-N87). Put plainly: MTT anti-proliferative assay, NCI-N87 (Examples 3-12). To be noted: 200 μg/ml, 48 hours. On the procedure: as §1, §2, §3, §4, §5
• 1. […]

For assay [3], the system named is human colon cancer cell line (HCT-116). Put plainly: MTT anti-proliferative assay, HCT-116 (Examples 3-12). To be noted: 200 μg/ml, 48 hours. On the procedure: as §1, §2, §3, §4, §5
• 1. […]

Assay [4] concerns human oesophageal squamous cell carcinoma cell line (KYSE-30). Put plainly: MTT anti-proliferative assay, KYSE-30 (Examples 3-13). Conditions: Examples 3-12, 200 μg/ml, 48 hours. How it is done: as §1, §2, §3, §4, §5
• 1. […]

The test system is the same in assay [5]. The description is as above. Conditions: Example 13, 10 μg/ml.

Each structure is given as a SMILES string. Values joined by “and” are separate entries in the source; they are usually repeats but may differ in a detail not shown here. Equal values may be shown once.

In general, % inhibition refers to the share of the control response that was lost under treatment. Read a high % inhibition as a strong effect. With `C=C(C)CCOC(=O)C=Cc1ccc(O)c(O)c1` [3-methyl-3-butenyl caffeate, 3-methyl-3-butenyl caffeic acid], the “% inhibition” value in assay [1] is 91.6% and 91.63%; in assay [2], 84.5% and 84.54%; in assay [3], 96.0% and 96.03%; in assay [4] it was 96.3% and 96.31%; in assay [5], 39.3% and 39.33%. The “% stim.” value in assay [1], in assay [2], in assay [3] and in assay [4] was 0% in each case. The “Mean OD (570 nm)” value in assay [1] came out at 0.0345; in assay [2], 0.0683; in assay [3], 0.0202; in assay [4], 0.0222; in assay [5] it was 0.2034.
